Measurements published in ChEMBL document CHEMBL5724806, “Unraveling interindividual differences and functional consequences of gut microbial metabolism of immunosuppressants” (2024).

Legend:
Format in all cases: ADME
[1] = (§1) The drug is tested on Actinomyces naeslundi strain: DSM43013 for biotransformation under anaerobic condition. The drug concentrations were measured over 6 timepoints collected between 0 and 12 hours of incubation by liquid-chromatography-coupled mass spectrometry (LC–MS); parameters: dose 5 uM, timepoint 0, 1.5, 3, 6, 9, 12 hours; details: actinomyces naeslundii, 5 µM
[2] = The drug is tested on Eubacterium rectale strain: DSM17629 for biotransformation under anaerobic condition. The drug concentrations were measured over 6 timepoints collected between 0 and 12 hours of incubation by liquid-chromatography-coupled mass spectrometry (LC–MS); parameters: dose 5 uM, timepoint 0, 1.5, 3, 6, 9, 12 hours; details: agathobacter rectalis, 5 µM
[3] = (§2) The drug is tested on Bifidobacterium longum strain: DSM20088 for biotransformation under microaerobic condition. The drug concentrations were measured over 6 timepoints collected between 0 and 12 hours of incubation by liquid-chromatography-coupled mass spectrometry (LC–MS); parameters: dose 5 uM, timepoint 0, 1.5, 3, 6, 9, 12 hours; details: 5 µM
[4] = as §1, with “the gut metagenome community of T-02 with ENA study accession number: PRJEB31790” for “Actinomyces naeslundi strain: DSM43013”, “7” for “6”; parameters: dose 5 uM, timepoint 0, 0.75, 1.5, 3, 6, 9, 12 hours; details: 5 µM
[5] = as §1, with “the gut metagenome community of T-03 with ENA study accession number: PRJEB31790” for “Actinomyces naeslundi strain: DSM43013”, “7” for “6”; parameters: dose 5 uM, timepoint 0, 0.75, 1.5, 3, 6, 9, 12 hours; details: 5 µM
[6] = The drug is tested on Gemella morbillorum strain: DSM20572 for biotransformation under anaerobic condition. The drug concentrations were measured over 6 timepoints collected between 0 and 12 hours of incubation by liquid-chromatography-coupled mass spectrometry (LC–MS); parameters: dose 5 uM, timepoint 0, 1.5, 3, 6, 9, 12 hours; details: 5 µM
[7] = The drug is tested on Actinomyces naeslundi strain: DSM43013 for biotransformation under microaerobic condition. The drug concentrations were measured over 6 timepoints collected between 0 and 12 hours of incubation by liquid-chromatography-coupled mass spectrometry (LC–MS); parameters: dose 5 uM, timepoint 0, 1.5, 3, 6, 9, 12 hours; details: actinomyces naeslundii, 5 µM
[8] = The drug is tested on Odoribacter splanchnicus strain: DSM20712 for biotransformation under anaerobic condition. The drug concentrations were measured over 6 timepoints collected between 0 and 12 hours of incubation by liquid-chromatography-coupled mass spectrometry (LC–MS); parameters: dose 5 uM, timepoint 0, 1.5, 3, 6, 9, 12 hours; details: 5 µM
[9] = The drug is tested on Clostridium bolteae strain: DSM15670 for biotransformation under anaerobic condition. The drug concentrations were measured over 6 timepoints collected between 0 and 12 hours of incubation by liquid-chromatography-coupled mass spectrometry (LC–MS); parameters: dose 5 uM, timepoint 0, 1.5, 3, 6, 9, 12 hours; details: enterocloster bolteae, 5 µM
[10] = as §1, with “the gut metagenome community of T-04 with ENA study accession number: PRJEB31790” for “Actinomyces naeslundi strain: DSM43013”, “7” for “6”; parameters: dose 5 uM, timepoint 0, 0.75, 1.5, 3, 6, 9, 12 hours; details: 5 µM
[11] = as §1, with “the gut metagenome community of P-04 with ENA study accession number: PRJEB31790” for “Actinomyces naeslundi strain: DSM43013”, “7” for “6”; parameters: dose 5 uM, timepoint 0, 0.75, 1.5, 3, 6, 9, 12 hours; details: 5 µM
[12] = The drug is tested on Parabacteroides merdae strain: DSM19495 for biotransformation under anaerobic condition. The drug concentrations were measured over 6 timepoints collected between 0 and 12 hours of incubation by liquid-chromatography-coupled mass spectrometry (LC–MS); parameters: dose 5 uM, timepoint 0, 1.5, 3, 6, 9, 12 hours; details: 5 µM
[13] = as §2, with “the gut metagenome community of T-02 with ENA study accession number: PRJEB31790” for “Bifidobacterium longum strain: DSM20088”, “7” for “6”; parameters: dose 5 uM, timepoint 0, 0.75, 1.5, 3, 6, 9, 12 hours; details: 5 µM
[14] = as §1, with “the gut metagenome community of P-03 with ENA study accession number: PRJEB31790” for “Actinomyces naeslundi strain: DSM43013”, “7” for “6”; parameters: dose 5 uM, timepoint 0, 0.75, 1.5, 3, 6, 9, 12 hours; details: 5 µM
[15] = The drug is tested on Streptococcus sanguinis strain: DSM20567 for biotransformation under microaerobic condition. The drug concentrations were measured over 6 timepoints collected between 0 and 12 hours of incubation by liquid-chromatography-coupled mass spectrometry (LC–MS); parameters: dose 5 uM, timepoint 0, 1.5, 3, 6, 9, 12 hours; details: 5 µM
[16] = as §2, with “the gut metagenome community of A-02 with ENA study accession number: PRJEB31790” for “Bifidobacterium longum strain: DSM20088”, “7” for “6”; parameters: dose 5 uM, timepoint 0, 0.75, 1.5, 3, 6, 9, 12 hours; details: 5 µM
[17] = The drug is tested on Bacteroides ovatus strain: ATCC 8483 for biotransformation under anaerobic condition. The drug concentrations were measured over 6 timepoints collected between 0 and 12 hours of incubation by liquid-chromatography-coupled mass spectrometry (LC–MS); parameters: dose 5 uM, timepoint 0, 1.5, 3, 6, 9, 12 hours; details: 5 µM
[18] = as §2, with “the gut metagenome community of T-04 with ENA study accession number: PRJEB31790” for “Bifidobacterium longum strain: DSM20088”, “7” for “6”; parameters: dose 5 uM, timepoint 0, 0.75, 1.5, 3, 6, 9, 12 hours; details: 5 µM
[19] = as §2, with “the gut metagenome community of A-03 with ENA study accession number: PRJEB31790” for “Bifidobacterium longum strain: DSM20088”, “7” for “6”; parameters: dose 5 uM, timepoint 0, 0.75, 1.5, 3, 6, 9, 12 hours; details: 5 µM
[20] = The drug is tested on Bacteroides xylanisolvens strain: HM 722 for biotransformation under anaerobic condition. The drug concentrations were measured over 6 timepoints collected between 0 and 12 hours of incubation by liquid-chromatography-coupled mass spectrometry (LC–MS); parameters: dose 5 uM, timepoint 0, 1.5, 3, 6, 9, 12 hours; details: 5 µM
[21] = The drug is tested on Streptococcus anginosus strain: DSM20563 for biotransformation under anaerobic condition. The drug concentrations were measured over 6 timepoints collected between 0 and 12 hours of incubation by liquid-chromatography-coupled mass spectrometry (LC–MS); parameters: dose 5 uM, timepoint 0, 1.5, 3, 6, 9, 12 hours; details: 5 µM
[22] = as §1, with “the gut metagenome community of A-06 with ENA study accession number: PRJEB31790” for “Actinomyces naeslundi strain: DSM43013”, “7” for “6”; parameters: dose 5 uM, timepoint 0, 0.75, 1.5, 3, 6, 9, 12 hours; details: 5 µM
[23] = as §2, with “the gut metagenome community of A-06 with ENA study accession number: PRJEB31790” for “Bifidobacterium longum strain: DSM20088”, “7” for “6”; parameters: dose 5 uM, timepoint 0, 0.75, 1.5, 3, 6, 9, 12 hours; details: 5 µM
[24] = The drug is tested on Bacteroides vulgatus strain: DSM1447 for biotransformation under anaerobic condition. The drug concentrations were measured over 6 timepoints collected between 0 and 12 hours of incubation by liquid-chromatography-coupled mass spectrometry (LC–MS); parameters: dose 5 uM, timepoint 0, 1.5, 3, 6, 9, 12 hours; details: phocaeicola vulgatus, 5 µM
[25] = as §2, with “the gut metagenome community of A-01 with ENA study accession number: PRJEB31790” for “Bifidobacterium longum strain: DSM20088”, “7” for “6”; parameters: dose 5 uM, timepoint 0, 0.75, 1.5, 3, 6, 9, 12 hours; details: 5 µM
[26] = The drug is tested on Gemella haemolysans strain: DSM107751 for biotransformation under microaerobic condition. The drug concentrations were measured over 6 timepoints collected between 0 and 12 hours of incubation by liquid-chromatography-coupled mass spectrometry (LC–MS); parameters: dose 5 uM, timepoint 0, 1.5, 3, 6, 9, 12 hours; details: 5 µM
[27] = as §2, with “the gut metagenome community of T-01 with ENA study accession number: PRJEB31790” for “Bifidobacterium longum strain: DSM20088”, “7” for “6”; parameters: dose 5 uM, timepoint 0, 0.75, 1.5, 3, 6, 9, 12 hours; details: 5 µM
[28] = The drug is tested on Capnocytophaga ochracea strain: DSM7271 for biotransformation under anaerobic condition. The drug concentrations were measured over 6 timepoints collected between 0 and 12 hours of incubation by liquid-chromatography-coupled mass spectrometry (LC–MS); parameters: dose 5 uM, timepoint 0, 1.5, 3, 6, 9, 12 hours; details: 5 µM
[29] = The drug is tested on Lactobacillus fermentum strain: DSM20052 for biotransformation under microaerobic condition. The drug concentrations were measured over 6 timepoints collected between 0 and 12 hours of incubation by liquid-chromatography-coupled mass spectrometry (LC–MS); parameters: dose 5 uM, timepoint 0, 1.5, 3, 6, 9, 12 hours; details: limosilactobacillus fermentum, 5 µM
[30] = The drug is tested on Bifidobacterium adolescentis strain: DSM20083 for biotransformation under anaerobic condition. The drug concentrations were measured over 6 timepoints collected between 0 and 12 hours of incubation by liquid-chromatography-coupled mass spectrometry (LC–MS); parameters: dose 5 uM, timepoint 0, 1.5, 3, 6, 9, 12 hours; details: 5 µM

Bacterial Biotransformation [1] | Bacterial Biotransformation [2] | Bacterial Biotransformation [3] | Bacterial Biotransformation [4] | Bacterial Biotransformation [5] | Bacterial Biotransformation [6] | Bacterial Biotransformation [7] | Bacterial Biotransformation [8] | Bacterial Biotransformation [9] | Bacterial Biotransformation [10] | Bacterial Biotransformation [11] | Bacterial Biotransformation [12] | Bacterial Biotransformation [13] | Bacterial Biotransformation [14] | Bacterial Biotransformation [15] | Bacterial Biotransformation [16] | Bacterial Biotransformation [17] | Bacterial Biotransformation [18] | Bacterial Biotransformation [19] | Bacterial Biotransformation [20] | SMILES | other results
Compound NOT metabolized | Compound NOT metabolized | Compound NOT metabolized | Compound NOT metabolized | Compound NOT metabolized | Compound NOT metabolized | Compound NOT metabolized | Compound NOT metabolized | Compound NOT metabolized | Compound NOT metabolized | Compound NOT metabolized | Compound NOT metabolized | Compound NOT metabolized | Compound NOT metabolized | Compound NOT metabolized | Compound NOT metabolized | Compound NOT metabolized | Compound NOT metabolized | Compound NOT metabolized | Compound NOT metabolized | CCOc1nc2cccc(C(=O)O)c2n1Cc1ccc(-c2ccccc2-c2nnn[nH]2)cc1 | Bacterial Biotransformation [21]: Compound NOT metabolized; Bacterial Biotransformation [22]: Compound NOT metabolized; Bacterial Biotransformation [23]: Compound NOT metabolized; Bacterial Biotransformation [24]: Compound NOT metabolized; Bacterial Biotransformation [25]: Compound NOT metabolized; Bacterial Biotransformation [26]: Compound NOT metabolized; Bacterial Biotransformation [27]: Compound NOT metabolized; Bacterial Biotransformation [28]: Compound NOT metabolized; Bacterial Biotransformation [29]: Compound NOT metabolized; Bacterial Biotransformation [30]: Compound NOT metabolized
Compound NOT metabolized | Compound NOT metabolized | Compound NOT metabolized | Compound metabolized | Compound NOT metabolized | Compound NOT metabolized | Compound NOT metabolized | Compound NOT metabolized | Compound NOT metabolized | Compound NOT metabolized | Compound NOT metabolized | Compound NOT metabolized | Compound metabolized | Compound metabolized | Compound NOT metabolized | Compound metabolized | Compound NOT metabolized | Compound NOT metabolized | Compound NOT metabolized | Compound NOT metabolized | CN(Cc1cnc2nc(N)nc(N)c2n1)c1ccc(C(=O)N[C@@H](CCC(=O)O)C(=O)O)cc1 [METHOTREXATE] | Bacterial Biotransformation [21]: Compound NOT metabolized; Bacterial Biotransformation [22]: Compound metabolized; Bacterial Biotransformation [23]: Compound metabolized; Bacterial Biotransformation [24]: Compound NOT metabolized; Bacterial Biotransformation [25]: Compound NOT metabolized; Bacterial Biotransformation [26]: Compound NOT metabolized; Bacterial Biotransformation [27]: Compound metabolized; Bacterial Biotransformation [28]: Compound NOT metabolized; Bacterial Biotransformation [29]: Compound NOT metabolized; Bacterial Biotransformation [30]: Compound NOT metabolized
Compound NOT metabolized | Compound NOT metabolized | Compound NOT metabolized | Compound NOT metabolized | Compound NOT metabolized | Compound NOT metabolized | Compound NOT metabolized | Compound NOT metabolized | Compound NOT metabolized | Compound NOT metabolized | Compound NOT metabolized | Compound NOT metabolized | Compound NOT metabolized | Compound NOT metabolized | Compound NOT metabolized | Compound NOT metabolized | Compound NOT metabolized | Compound NOT metabolized | Compound NOT metabolized | Compound NOT metabolized | COc1c(C)c2c(c(O)c1C/C=C(\C)CCC(=O)O)C(=O)OC2 [MYCOPHENOLIC ACID] | Bacterial Biotransformation [21]: Compound NOT metabolized; Bacterial Biotransformation [22]: Compound NOT metabolized; Bacterial Biotransformation [23]: Compound NOT metabolized; Bacterial Biotransformation [24]: Compound NOT metabolized; Bacterial Biotransformation [25]: Compound NOT metabolized; Bacterial Biotransformation [26]: Compound NOT metabolized; Bacterial Biotransformation [27]: Compound NOT metabolized; Bacterial Biotransformation [28]: Compound NOT metabolized; Bacterial Biotransformation [29]: Compound NOT metabolized; Bacterial Biotransformation [30]: Compound NOT metabolized
